The values that follow come from PubChem BioAssay AID624285 (Broad Institute, 2012).

The structures appear in SMILES notation. Active and inactive are the calls of the source.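 How the source made its calls: active means signal-decreasing dose-response curve whose fitted half-maximal concentration is at or below twice the highest valid tested dose; inconclusive means flat fit at 30 to 70% signal loss, or poor fit; inactive means the rest.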

The assay is described as follows: cell viability loss after compound exposure – 24 h, luminescence, cherry-picked samples, cytotoxicity control for PDI inhibitor project, dose response (AID 624285). To be noted: NIH3T3/HeLa viability, CellTiter-Glo ATP luminescence, 24 h; at 35 µM (top of the series).

`Cc1nn(CC(=O)NCC2CCCO2)c(C)c1[N+](=O)[O-]` (stereo not given): the activity change, negative = cytotoxicity is -7.91% (inactive).
As for `CCOC(=O)c1ccc(NC(=O)C2(c3ccc(Cl)cc3)CCCC2)cc1`, the activity change, negative = cytotoxicity was -21.1% (inactive).
For `CCOC(=O)c1ccc2c(c1)nc(SCC(=O)N1CCCCC1)n2CC` the value was -10.4% (inactive).
The value for `Cc1cccc(NC(=S)NCC23C=CC(O2)C2C(=O)N(c4ccc(Cl)cc4)C(=O)C23)c1` (stereo not given) was -20.9% (inactive); that for `Cc1c(C(=O)N2CCOCC2)sc2ncn(CC(=O)N3CCC(C)CC3)c(=O)c12` was -2.62% (inactive).
With `CCOC(=O)C1(CC2CC2)CCN(Cc2cc(Cl)c(O)c(OC)c2)CC1`, the activity change, negative = cytotoxicity was -20.4% (inactive).
For `O=C(Nc1cccc(S(=O)(=O)Nc2ccc(SC(F)F)cc2)c1)C1CCC1`, the activity change, negative = cytotoxicity was -13.1% (inactive).
On to `Cc1cc(C)c(C)c(S(=O)(=O)N2CCC(C(=O)N(C)Cc3nc4ccccc4c(=O)[nH]3)CC2)c1C`, for which the activity change, negative = cytotoxicity is -5.52% (inactive).
For the molecule `Cn1cc(Cl)c(C(=O)OCC(=O)Nc2ccccc2)n1`, the activity change, negative = cytotoxicity is -7.99% (inactive).
Regarding `Cc1noc(C)c1C(=O)OCC(=O)NCCc1ccc(Cl)cc1`, the activity change, negative = cytotoxicity was -14.2% (inactive).
With `COc1ccc(S(=O)(=O)NC(C)C(=O)Nc2ccccc2F)cc1` (stereo not given), the activity change, negative = cytotoxicity was -4.66% (inactive).
As to `CC1CCCN(c2cc3c(cc2[N+](=O)[O-])C(=O)N(c2ccccc2)C3=O)C1` (stereo not given), the activity change, negative = cytotoxicity is 0.75% (inactive).
On to `CC1(C)CC[C@]2(C(=O)O)CC[C@]3(C)C(=CC[C@@H]4[C@@]5(C)CC[C@H](O[C@@H]6O[C@H](C(=O)O)[C@@H](O)[C@H](O[C@@H]7OC[C@H](O)[C@H](O)[C@H]7O)[C@H]6O)C(C)(C)[C@@H]5CC[C@]43C)[C@@H]2C1`, for which the activity change, negative = cytotoxicity is -3.34% (inactive).
As for `CNc1ncnc2c1ncn2[C@H]1CN(Cc2cccc3ccccc23)C[C@@H](CO)O1`, the activity change, negative = cytotoxicity is -19.8% (inactive).
Take `COC(=O)c1ccc(COC(=O)CSCC(=O)Nc2ccc(C)cc2C)cc1`: the activity change, negative = cytotoxicity is -2.15% (inactive).
Consider `O=C(c1ccco1)N1CCN(Cc2cc(=O)oc3cc(O)ccc23)CC1`, for which the activity change, negative = cytotoxicity is -18% (inactive).
Take `O=C(N/N=C/c1ccc(O)cc1)NC12CC3CC(CC(C3)C1)C2`: the activity change, negative = cytotoxicity was -14.1% (inactive).
As to `Cc1ccc(O)c(NC(=O)CSc2n[nH]c(-c3ccccc3)n2)c1`, the activity change, negative = cytotoxicity is -16.4% (inactive).
`CCOC(=O)CN(c1ccccc1)S(=O)(=O)c1ccc(F)cc1`: the activity change, negative = cytotoxicity is -10.3% (inactive).
On to `Cc1noc(C)c1S(=O)(=O)Nc1ccc2c(c1)CC(=O)N([C@H](C)CO)C[C@H](C)[C@@H](CN(C)S(=O)(=O)c1ccc(F)cc1)O2`, for which the activity change, negative = cytotoxicity is 4.98% (inactive).
Take `CC(NCC(O)COCc1ccc(Cl)cc1)c1ccccc1` (stereo not given): the activity change, negative = cytotoxicity is -15.3% (inactive).
For `CCCCn1c(N)c(N(CC(C)C)C(=O)c2cc(-c3ccncc3)nc3ccccc23)c(=O)[nH]c1=O` the value was -9.75% (inactive); for `CC(OC(=O)c1cccc(S(=O)(=O)N(C)C)c1)C(=O)NCC(=O)Nc1ccc(F)c(F)c1F` (stereo not given), -4.24% (inactive); for `COCc1[nH][nH]c(=O)c1C=Nc1ccc(F)cc1F`, -11.4% (inactive).
`COc1ccccc1NS(=O)(=O)c1ccc(C)c(C(=O)NCC2(N(C)C)CCCCC2)c1`: the activity change, negative = cytotoxicity is -11.3% (inactive).
On to `C/C=C(\C)C(=O)NCCN1C2=NC[C@H](Cc3ccc(O)cc3)N2C[C@H]1Cc1ccc(O)cc1`, for which the activity change, negative = cytotoxicity was -2.15% (inactive).
For `NC(=O)c1ccc(NC(=O)COC(=O)c2ccc(Br)c(S(=O)(=O)N3CCOCC3)c2)cc1` the value was -6.39% (inactive); for `Cc1cc(NC(=O)CSc2[nH]c(=O)cc(C(F)(F)F)c2C#N)no1`, -3.53% (inactive).
Turning to `O=C1NC(Cc2ccc(O)cc2)c2nc3ccccc3c(=O)n2-c2ncccc21` (stereo not given), the activity change, negative = cytotoxicity was -7.17% (inactive).
For `C[C@@H]1O[C@@H](O[C@H]2[C@H](O)[C@@H](O)[C@H](Oc3c(-c4ccc(O)cc4)oc4cc(O)cc(O)c4c3=O)O[C@@H]2CO)[C@H](O)[C@H](O)[C@H]1O` the value was -3.49% (inactive); for `CCOc1ccc2nc(NS(=O)(=O)Cc3ccccc3)sc2c1`, -6.13% (inactive); for `O=C(CN(CCc1ccccc1)C(=O)CNS(=O)(=O)c1ccccc1)NCC1CCCO1` (stereo not given), -1.76% (inactive).
Take `C[C@@H]1O[C@@H](OC[C@@H]2O[C@H](Oc3c(-c4ccc(O)cc4)oc4cc(O)cc(O)c4c3=O)[C@@H](O)[C@H](O)[C@H]2O)[C@H](O)[C@H](O)[C@H]1O`: the activity change, negative = cytotoxicity is 0.405% (inactive).
As to `CCCCn1c(SCC(=O)Nc2ccc(C)c(S(=O)(=O)N3CCOCC3)c2)nnc1C(CC)N(C)C` (stereo not given), the activity change, negative = cytotoxicity is 1.22% (inactive).
On to `CC(=O)NC(Cc1c[nH]c2ccccc12)C(=O)OCC(=O)N1CCN(S(=O)(=O)c2ccc(Cl)cc2)CC1` (stereo not given), for which the activity change, negative = cytotoxicity is -10.5% (inactive).
With `CCN1CC2(COC(=O)c3ccccc3N)CCC(OC)C34C5CC6C(OC)CC(O)(C5C6OC)C(O)(C(OC)C23)C14` (stereo not given), the activity change, negative = cytotoxicity was -11.8% (inactive).
As to `CCCn1nnnc1NC(=O)c1cccs1`, the activity change, negative = cytotoxicity was -5.77% (inactive).
`COC(=O)c1cccc(CSc2nnc(C)s2)c1`: the activity change, negative = cytotoxicity was -12.9% (inactive).
`COc1ccc(S(=O)(=O)NCC(c2ccc(F)cc2)N2CCOCC2)cc1Br` (stereo not given): the activity change, negative = cytotoxicity was -10.1% (inactive).
On to `CC(O)(c1cccnc1)c1nc(-c2cc(F)cc(F)c2)cs1` (stereo not given), for which the activity change, negative = cytotoxicity was -6.67% (inactive).
For `Cc1cc(=O)c(C(=O)Nc2cccc(C(=O)NC3CC3)c2)nn1-c1ccccc1`, the activity change, negative = cytotoxicity was -3.19% (inactive).
For `COc1ccc(N2CCN(CC(=O)c3ccc(O)c(C)c3O)CC2)cc1` the value was -3.44% (inactive); for `Cc1ccc(NC(=O)NC(=O)CN2CCC(C(N)=O)CC2)c(C)c1`, -4.84% (inactive).
`Cc1ccc(C)c(NS(=O)(=O)c2c(C)nn(C)c2C)c1`: the activity change, negative = cytotoxicity was -1.82% (inactive).
The value for `COc1ccc2c(CC(=O)OCC(=O)N(C)c3c(N)n(Cc4ccccc4)c(=O)[nH]c3=O)coc2c1` was -8.77% (inactive).
On to `C[C@H](CO)N1C[C@H](C)[C@H](CN(C)Cc2ccccc2)Oc2ccc(NC(=O)Nc3ccccc3)cc2CC1=O`, for which the activity change, negative = cytotoxicity was -11.2% (inactive).
In the case of `O=C(CNC(=O)c1n[nH]c2ccccc12)Nc1cc(Cl)ccc1Cl`, the activity change, negative = cytotoxicity was -8.33% (inactive).
In the case of `CCN(CC)CCNC(=O)C(C(=O)c1ccccc1)n1ccccc1=O` (stereo not given), the activity change, negative = cytotoxicity was -1.54% (inactive).
For `O=C1CN(c2nc3ccccc3n3cnnc23)CC(=O)N1CCc1ccccc1` the value was -8.64% (inactive).
As for `CC(=O)OCC(=O)NCc1ccc2c(c1)OCO2`, the activity change, negative = cytotoxicity is -5.14% (inactive).
